In assay [1] the test system is hippocampal slices. Kind of assay: Paired pulse facilitation (PPF) at the CA3-CA1 connection. In kind it is cell-based, mouse.
Assay [2] concerns hippocampal slices.
The target of assay [3] is rodent Aβ42 (Mus musculus; Rattus norvegicus). Kind of assay: cell-based or functional assay.

The values that follow come from patent publication US20100081613A1, “METHODS AND COMPOSITIONS FOR ENHANCING MEMORY” (THE TRUSTEES OF COLUMBIA UNIVERSITY IN THE CITY OF NEW YORK, priority 2006, published 2010).

As for `CNC1(C)C2CCC(C2)C1(C)C` (centres unmarked) [MCL, mecamylamine], the PPF in the assay on hippocampal slices [1] (20 ms interval, MCL 3 μM for 20 min plus Aβ42) is listed as 138.18±22.01 % of facilitation; in the assay on hippocampal slices [1] (30 ms interval, MCL 3 μM for 20 min plus Aβ42), 158.58±16.79 % of facilitation; in the assay on hippocampal slices [1] (40 ms interval, MCL 3 μM for 20 min plus Aβ42) it was 176.71±17.51 % of facilitation; in the assay on hippocampal slices [1] (50 ms interval, MCL 3 μM for 20 min plus Aβ42), 197.49±22.30 % of facilitation; in the assay on hippocampal slices [1] (MCL 3 μM for 20 min alone), 214.53±20.85%. In addition, the PTP result in the assay on hippocampal slices [2] is given as “does not affect PTP”.

For α-bungarotoxin [α-BgTx], the PTP result in the assay on hippocampal slices [2] was “does not affect PTP”.

Compound anti-rodent Aβ monoclonal antibody m3.2 yielded a contextual fear conditioning, freezing 24 hrs after training, m3.2 mAb 1 µg in 1 µl into dorsal hippocampi (% of freezing) in assay [3] of 16.8.
